# Results published in the supplement of paper PMC4858399.
# Counter-ions that a name gives are not always drawn.
# Assays:
# Conditions in all cases: exposure time 48 h
# [1] = test system: Caenorhabditis elegans N2; experiment: AC50 for larval growth inhibition (Hill fit); higher = less potent
# Method in brief: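 Synchronised C. elegans N2 L1 larvae, 50 per well in 96-well plates, were grown at 20°C for 48 h in K-medium with killed OP50, 1% DMSO and 0.5–200 µM chemical. Worm size was read on a COPAS Biosort as extinction, log-transformed and averaged per well, and only wells holding at least 10 worms were kept. AC50 was obtained by a constrained Hill fit using weighted genetic-algorithm regression, with out-of-range values censored.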
# [2] = test system: Caenorhabditis elegans N2; experiment: lowest effective concentration for larval growth inhibition (size below effect threshold); higher = less potent
# Method in brief: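 Worm size was taken as per-worm extinction on the Biosort, log-transformed and turned into well means. The larvae (C. elegans N2, L1 stage, 50 per 96-well) had spent 48 h at 20°C in K-medium with killed bacteria, 1% DMSO and 0.5, 1, 5, 10, 50, 100 or 200 µM chemical. The lowest effective concentration marks the first dose where the plate-adjusted mean size drops under a cutoff and remains under it at every higher dose; the cutoff is 5.665.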
# [3] = test system: Caenorhabditis elegans N2; experiment: mean nematode size ln(EXT) after 48 h, plate-adjusted (DMSO control set to 6) (ln(EXT), control-adjusted); higher = larger nematodes / less growth inhibition
# Method in brief: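 In K-medium with killed OP50, 1% DMSO and 0.5–200 µM chemical, synchronised N2 L1 larvae of C. elegans (50 per well) grew for 48 h at 20°C. Extinction was read for every worm on the Biosort, with debris removed by a growth model. Natural-log values averaged per well gave mean size, which was corrected per plate by subtracting the vehicle control mean and adding 6.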
Structure (SMILES),AC50 for larval growth inhibition [1] [µM],lowest effective concentration [2] [µM],mean nematode size ln(EXT) (ln) ([3]; 0.5 µM),mean nematode size ln(EXT) (ln) ([3]; 1 µM),mean nematode size ln(EXT) (ln) ([3]; 5 µM),mean nematode size ln(EXT) (ln) ([3]; 10 µM),mean nematode size ln(EXT) (ln) ([3]; 50 µM),mean nematode size ln(EXT) (ln) ([3]; 100 µM),mean nematode size ln(EXT) (ln) ([3]; 200 µM)
CCN(CC)C(=S)SSC(=S)N(CC)CC [Disulfiram],> 200,100,5.96,6,6.03,5.99,5.86,5.59,4.56
CCOP(=S)(OCC)SCn1c(=O)oc2cc(Cl)ccc21 [Phosalone],9.77,10,5.76,5.7,5.97,4.73,4.26,4.06,3.72
CC(C)Nc1nc(Cl)nc(NC(C)C)n1 [Propazine],102,200,5.99,6.05,6.03,6.09,6.04,5.83,5.55
CCCOC(=O)c1cc(O)c(O)c(O)c1 [Propyl gallate],126,200,5.91,5.94,6.05,5.78,5.95,5.81,5.54
CS/C(C)=N\OC(=O)N(C)SN(C)C(=O)O/N=C(\C)SC [Thiodicarb],28.4,5,5.54,5.83,5.32,5.34,4.27,3.74,3.51
CNC(=O)Oc1cccc(/N=C/N(C)C)c1 [Formetanate hydrochloride],62.8,100,5.85,6.01,6,5.93,5.73,5.59,5.47
CCCCNC(=O)OCC#CI [3-Iodo-2-propynylbutylcarbamate],101,100,6.05,5.98,6.06,6.03,5.84,4.8,3.17
CCOC(=O)O[C@H](C)OC(=O)c1ccc2c(c1)cc(C(=O)NC1CCN(C(C)C)CC1)n2Cc1cc(-c2ccc(Cl)s2)on1,78.2,50,5.85,5.86,5.87,5.76,4.76,4.59,3.71
CC[C@H]1OC(=O)[C@H](C)[C@@H](O[C@H]2C[C@@](C)(OC)[C@@H](O)[C@H](C)O2)[C@H](C)[C@@H](O[C@@H]2O[C@H](C)C[C@H](N(C)C)[C@H]2O)[C@](C)(O)C[C@@H](C)C(=O)[C@H](C)[C@@H](O)[C@]1(C)O [Erythromycin],,> 200,5.95,5.89,5.94,5.9,5.86,5.92,5.84
"Cc1cc(C)cc(C)c1 [1,3,5-Trimethylbenzene]",,> 200,5.85,5.84,5.83,5.9,5.89,5.99,5.72
"C=CC(=O)NCNC(=O)C=C [N,N'-Methylenebis(acrylamide)]",,> 200,6.06,6.06,6.06,6.01,6,6.05,5.83
OCCN(CCO)CCO [Triethanolamine],,> 200,5.65,5.64,5.71,5.66,5.09,5.38,5.69
Nc1nc(=O)c2nc(CNc3ccc(C(=O)N[C@@H](CCC(=O)O)C(=O)O)cc3)cnc2[nH]1 [Folic acid],,> 200,6.04,5.96,5.91,6.04,6.02,6,5.82
CCCCC(CC)COP(=O)(OCC(CC)CCCC)OCC(CC)CCCC (configuration not stated) [Tris(2-ethylhexyl) phosphate],,> 200,5.94,5.99,5.94,5.96,5.92,5.34,5.78
CNC(=O)Oc1ccccc1OC(C)C [Propoxur],,> 200,6.04,5.9,6.09,6.03,5.83,6.46,5.8
CCCCCCCCOC(=O)c1ccccc1C(=O)OCCCCCCCC [Di-n-octyl phthalate],,> 200,5.93,5.87,5.9,5.85,5.88,5.83,5.83
Oc1ccccc1 [Phenol],,> 200,6.09,5.98,6.01,5.98,5.94,5.92,6.02
CCCCCCCCC(=O)O [Nonanoic acid],,> 200,5.86,5.94,5.94,5.91,5.89,5.93,5.83
CCCCCCCCCCCCCCCC [Hexadecane],,> 200,5.93,5.9,5.89,5.89,5.86,5.83,5.72
O=[N+]([O-])c1ccc(O)cc1 [Sodium p-nitrophenolate],,> 200,5.95,5.97,5.92,5.98,6.15,5.81,5.87
Cc1cccc(Nc2cc(Cl)nc(SCC(=O)O)n2)c1C [Pirinixic acid],,> 200,6.05,5.95,5.99,5.97,5.94,5.77,5.93
CC(C)CC(C)(O)C#CC(C)(O)CC(C)C (racemic),,> 200,5.77,5.77,5.78,5.78,5.64,5.75,5.81
"Cc1cc(Cc2ccc(N)c(C)c2)ccc1N [4,4'-Methylene bis(2-methylaniline)]",,> 200,5.83,5.82,5.8,5.78,5.79,5.83,5.71
"CC(C)=CCC/C(C)=C/C=O [3,7-Dimethyl-2,6-octadienal]",,> 200,5.72,5.74,5.77,5.84,5.78,5.88,5.73

Structure (SMILES),AC50 for larval growth inhibition [1] [µM],lowest effective concentration [2] [µM],mean nematode size ln(EXT) (ln) ([3]; 0.5 µM),mean nematode size ln(EXT) (ln) ([3]; 1 µM),mean nematode size ln(EXT) (ln) ([3]; 5 µM),mean nematode size ln(EXT) (ln) ([3]; 10 µM),mean nematode size ln(EXT) (ln) ([3]; 50 µM),mean nematode size ln(EXT) (ln) ([3]; 100 µM),mean nematode size ln(EXT) (ln) ([3]; 200 µM)
Cc1nc(C)nc(N2C[C@@H](C)N(c3ccnc([C@@H](C)O)n3)[C@@H](C)C2)n1,,> 200,5.83,5.77,5.75,5.69,5.71,5.7,5.85
O=C(O)c1nc(Cl)ccc1Cl [Clopyralid-olamine],,> 200,5.87,5.89,5.95,5.89,5.88,5.98,5.95
CN(C)C(=S)[S-].CN(C)C(=S)[S-].[Zn+2] [Ziram],,> 200,5.98,5.89,5.78,5.83,5.84,5.75,5.77
C1CNCCN1 [Piperazine],,> 200,5.84,5.81,5.85,5.84,5.89,5.84,5.74
CCOCCOCCOCCO [2-[2-(2-Ethoxyethoxy)ethoxy]ethanol],,> 200,5.96,5.89,5.95,5.94,5.91,5.9,5.83
CCCCc1ccc2c(n1)[C@@H](c1ccc(OC)cc1C[C@H](C)C(=O)O)[C@H](C(=O)O)[C@H]2c1ccc2c(c1)OCO2,,> 200,5.82,5.87,5.83,6.32,5.91,5.95,5.88
"CC1(C)NC(=O)NC1=O [5,5-Dimethylhydantoin]",,> 200,5.74,5.99,6.06,5.91,5.97,5.93,5.79
O=C(O)C(Cl)(Cl)Cl [Trichloroacetic acid],,> 200,5.84,5.85,5.86,5.91,5.89,5.91,5.67
CNC(=O)CSP(=S)(OC)OC [Dimethoate],,> 200,6.23,6.15,6.18,6.23,6.24,6.21,5.95
CCn1nc(C)c2c1C(=O)NCC(c1ccc(O)cc1)=N2,,> 200,5.87,5.81,5.85,5.89,5.87,5.9,5.71
O=c1ccc2ccccc2o1 [Coumarin],,> 200,5.93,5.92,5.85,5.93,5.94,5.95,5.8
COCC(C)OCC(C)OCC(C)O (configuration not stated) [Tripropylene glycol monomethyl ether],,> 200,5.71,6.01,5.88,5.89,5.91,5.9,5.72
CCCN(CCC)N=O [N-Nitrosodipropylamine],,> 200,5.88,5.93,5.92,5.84,5.87,5.72,5.97
Cc1ccccc1O [2-Methylphenol],,> 200,5.98,5.9,5.94,5.82,5.92,5.94,5.81
CCCCCOC(=O)c1ccccc1C(=O)OCCCCC [Dipentyl phthalate],,> 200,5.85,5.86,5.89,5.87,5.85,5.81,5.73
Nc1nc(Cl)nc2c1ncn2[C@H]1C[C@H](O)[C@@H](CO)O1 [2-Chloro-2'-deoxyadenosine],,> 200,5.92,5.87,5.91,5.87,5.88,5.88,5.7
NC(=O)N1c2ccccc2C=Cc2ccccc21 [Carbamazepine],,> 200,5.86,5.85,5.88,5.83,5.88,5.85,5.67
"COc1cc(-c2ccc(N)c(OC)c2)ccc1N [3,3'-Dimethoxybenzidine)]",,> 200,6,6.08,6.05,6.07,6.06,6.03,5.74
CCOC(N)=O [Urethane (ethyl carbamate)],,> 200,5.96,5.93,5.97,6,5.95,5.91,5.97
OC[C@H]1O[C@@H]2O[C@H]3[C@H](O)[C@@H](O)[C@@H](O[C@H]4[C@H](O)[C@@H](O)[C@@H](O[C@H]5[C@H](O)[C@@H](O)[C@@H](O[C@H]6[C@H](O)[C@@H](O)[C@@H](O[C@H]7[C@H](O)[C@@H](O)[C@@H](O[C@H]1[C@H](O)[C@H]2O)O[C@@H]7CO)O[C@@H]6CO)O[C@@H]5CO)O[C@@H]4CO)O[C@@H]3CO [alpha-Cyclodextrin],,> 200,5.83,5.83,5.77,5.87,5.88,5.82,5.74
"c1nc[nH]n1 [1H-1,2,4-Triazole]",,> 200,6.09,6.11,6,6.04,6.04,6.02,5.74
CCNc1nc(Cl)nc(NCC)n1 [Simazine],,> 200,6.2,6.08,6.12,6.13,6.17,6.19,5.77
"CCC12COCN1COC2 [5-Ethyl-1-aza-3,7-dioxabicyclo[3.3.0]octane]",,> 200,5.73,6.05,6.06,5.92,5.96,5.94,5.78
CCO[Si](CCCNC(N)=O)(OCC)OCC [3-Ureidopropyltriethoxysilane],,> 200,5.84,5.83,5.84,5.8,5.74,5.63,5.84
